Measured values published in ChEMBL document CHEMBL1201862, “PubChem BioAssay data set” (2004).
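Cultured in 96-well plates, cells were exposed to test compound for 48 hours across five concentrations. Abbreviation: GI50, concentration required for 50% inhibition of growth.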 Activity calls are given as the source filed them. Cut-off read from the data, not from the text of the source: active = GI50 up to about 1.1 µM and inactive = higher.

Legend:
Assay in all cases: NCI-60 cell line screen, 48 h
786-0 = tested on: 786-0
A549 = tested on: A549
ACHN = tested on: ACHN
BT-549 = tested on: BT-549
CCRF-CEM = tested on: CCRF-CEM
COLO 205 = tested on: COLO 205
DU-145 = tested on: DU-145
EKVX = tested on: EKVX
HCC 2998 = tested on: HCC 2998
HCT-116 = tested on: HCT-116
HCT-15 = tested on: HCT-15
HL-60 = tested on: HL-60
HOP-62 = tested on: HOP-62
HT-29 = tested on: HT-29
Hs-578T = tested on: Hs-578T
IGROV-1 = tested on: IGROV-1
K562 = tested on: K562
KM12 = tested on: KM12
LOX IMVI = tested on: LOX IMVI
MCF7 = tested on: MCF7
MDA-MB-231 = tested on: MDA-MB-231
MDA-MB-435 = tested on: MDA-MB-435
MDA-N = tested on: MDA-N
MOLT-4 = tested on: MOLT-4
Malme-3M = tested on: Malme-3M
NCI-H23 = tested on: NCI-H23
NCI-H460 = tested on: NCI-H460
NCI-H522 = tested on: NCI-H522
NCI/ADR-RES = tested on: NCI/ADR-RES
OVCAR-3 = tested on: OVCAR-3
OVCAR-5 = tested on: OVCAR-5
OVCAR-8 = tested on: OVCAR-8
PC-3 = tested on: PC-3
RPMI-8226 = tested on: RPMI-8226
RXF 393 = tested on: RXF 393
SF-268 = tested on: SF-268
SF-295 = tested on: SF-295
SF-539 = tested on: SF-539
SK-MEL-28 = tested on: SK-MEL-28
SK-MEL-2 = tested on: SK-MEL-2
SK-MEL-5 = tested on: SK-MEL-5
SN12C = tested on: SN12C
SNB-19 = tested on: SNB-19
SNB-75 = tested on: SNB-75
SR = tested on: SR
SW-620 = tested on: SW-620
TK-10 = tested on: TK-10
U-251 = tested on: U-251
UACC-257 = tested on: UACC-257
UACC-62 = tested on: UACC-62
UO-31 = tested on: UO-31
A498 = tested on: A498
CAKI-1 = tested on: CAKI-1
HOP-92 = tested on: HOP-92
M14 = tested on: M14
NCI-H226 = tested on: NCI-H226
OVCAR-4 = tested on: OVCAR-4

`CN(C)c1ccc(C(N)=O)cn1` was tested, and the GI50 (786-0) was > 100 µM (inactive), the GI50 (A549) was > 100 µM (inactive) and the GI50 (ACHN) was > 100 µM (inactive). For the same molecule, the GI50 (BT-549) was > 100 µM (inactive), the GI50 (CCRF-CEM) was > 100 µM (inactive) and the GI50 (COLO 205) was > 100 µM (inactive). For the same molecule, the GI50 (DU-145) was > 100 µM (inactive), the GI50 (EKVX) was > 100 µM (inactive) and the GI50 (HCC 2998) was > 100 µM (inactive). The GI50 (HCT-116) was > 100 µM (inactive), the GI50 (HCT-15) was > 100 µM and the GI50 (HL-60) was > 100 µM (inactive). For the same molecule, the GI50 (HOP-62) was > 100 µM (inactive), the GI50 (HT-29) was > 100 µM (inactive) and the GI50 (Hs-578T) was > 100 µM (inactive). The GI50 (IGROV-1) was > 100 µM (inactive), the GI50 (K562) was > 100 µM (inactive) and the GI50 (KM12) was > 100 µM (inactive). For the same molecule, the GI50 (LOX IMVI) was > 100 µM (inactive), the GI50 (MCF7) was > 100 µM (inactive) and the GI50 (MDA-MB-231) was > 100 µM (inactive). The GI50 (MDA-MB-435) was > 100 µM (inactive), the GI50 (MDA-N) was > 100 µM (inactive) and the GI50 (MOLT-4) was > 100 µM (inactive). The GI50 (Malme-3M) was > 100 µM (inactive), the GI50 (NCI-H23) was > 100 µM (inactive) and the GI50 (NCI-H460) was > 100 µM (inactive). For the same molecule, the GI50 (NCI-H522) was > 100 µM (inactive), the GI50 (NCI/ADR-RES) was > 100 µM (inactive) and the GI50 (OVCAR-3) was > 100 µM (inactive). The GI50 (OVCAR-5) was > 100 µM (inactive), the GI50 (OVCAR-8) was > 100 µM (inactive) and the GI50 (PC-3) was > 100 µM (inactive). The GI50 (RPMI-8226) was > 100 µM (inactive), the GI50 (RXF 393) was > 100 µM (inactive) and the GI50 (SF-268) was > 100 µM (inactive). For the same molecule, the GI50 (SF-295) was > 100 µM (inactive), the GI50 (SF-539) was > 100 µM (inactive) and the GI50 (SK-MEL-28) was > 100 µM (inactive). The GI50 (SK-MEL-2) was > 100 µM (inactive), the GI50 (SK-MEL-5) was > 100 µM (inactive) and the GI50 (SN12C) was > 100 µM (inactive). The GI50 (SNB-19) was > 100 µM (inactive), the GI50 (SNB-75) was > 100 µM (inactive) and the GI50 (SR) was > 100 µM (inactive). For the same molecule, the GI50 (SW-620) was > 100 µM (inactive), the GI50 (TK-10) was > 100 µM (inactive) and the GI50 (U-251) was > 100 µM (inactive). For the same molecule, the GI50 (UACC-257) was > 100 µM (inactive), the GI50 (UACC-62) was > 100 µM (inactive) and the GI50 (UO-31) was > 100 µM (inactive).

In the case of `CC(/C=C/C=C/C=C/C=C/C=C/C(=O)C1=C(O)C(CCC(=O)O)N(C)C1=O)=C\C(C)C(OC1CC(O)C(O)C(C)O1)C(C)C` (configuration not stated), the GI50 (786-0) is reported as 3.15 µM (inactive), the GI50 (A498) is reported as 2.84 µM (inactive) and the GI50 (A549) is reported as 3.19 µM (inactive). For the same molecule, the GI50 (ACHN) was 3.13 µM (inactive), the GI50 (BT-549) was 2.11 µM (inactive) and the GI50 (CAKI-1) was 3.5 µM (inactive). For the same molecule, the GI50 (CCRF-CEM) was 3.26 µM (inactive), the GI50 (COLO 205) was 2.18 µM (inactive) and the GI50 (DU-145) was 3.42 µM (inactive). The GI50 (EKVX) was 3.31 µM (inactive), the GI50 (HCC 2998) was 2.15 µM (inactive) and the GI50 (HCT-116) was 2.82 µM (inactive). The GI50 (HCT-15) was 3.68 µM, the GI50 (HL-60) was 2.43 µM (inactive) and the GI50 (HOP-62) was 1.87 µM (inactive). For the same molecule, the GI50 (HOP-92) was 2.72 µM (inactive), the GI50 (HT-29) was 3.02 µM (inactive) and the GI50 (Hs-578T) was 5.85 µM (inactive). For the same molecule, the GI50 (IGROV-1) was 1.82 µM (inactive), the GI50 (K562) was 3.71 µM (inactive) and the GI50 (KM12) was 1.88 µM (inactive). The GI50 (LOX IMVI) was 3.44 µM (inactive), the GI50 (M14) was 3.26 µM (inactive) and the GI50 (MCF7) was 4.35 µM (inactive). The GI50 (MDA-MB-231) was 2.9 µM (inactive), the GI50 (MDA-MB-435) was 3 µM (inactive) and the GI50 (MDA-N) was 2.97 µM (inactive). For the same molecule, the GI50 (MOLT-4) was 2.82 µM (inactive), the GI50 (Malme-3M) was 2.23 µM (inactive) and the GI50 (NCI-H226) was 3.48 µM (inactive). The GI50 (NCI-H23) was 2.62 µM (inactive), the GI50 (NCI-H460) was 2.96 µM (inactive) and the GI50 (NCI-H522) was 2.91 µM (inactive). For the same molecule, the GI50 (NCI/ADR-RES) was 13 µM (inactive), the GI50 (OVCAR-3) was 1.98 µM (inactive) and the GI50 (OVCAR-4) was 5.75 µM (inactive). The GI50 (OVCAR-5) was 2.27 µM (inactive), the GI50 (OVCAR-8) was 3.74 µM (inactive) and the GI50 (PC-3) was 3.32 µM (inactive). For the same molecule, the GI50 (RPMI-8226) was 3.13 µM (inactive), the GI50 (RXF 393) was 3.07 µM (inactive) and the GI50 (SF-268) was 2.84 µM (inactive). For the same molecule, the GI50 (SF-295) was 3.8 µM (inactive), the GI50 (SF-539) was 2.56 µM (inactive) and the GI50 (SK-MEL-28) was 2.68 µM (inactive). The GI50 (SK-MEL-2) was 1.78 µM (inactive), the GI50 (SK-MEL-5) was 1.91 µM (inactive) and the GI50 (SN12C) was 3.33 µM (inactive). The GI50 (SNB-19) was 2.81 µM (inactive), the GI50 (SNB-75) was 3.89 µM (inactive) and the GI50 (SR) was 3.85 µM (inactive). For the same molecule, the GI50 (SW-620) was 4.13 µM (inactive), the GI50 (TK-10) was 2.49 µM (inactive) and the GI50 (U-251) was 3.6 µM (inactive). The GI50 (UACC-257) was 2.15 µM (inactive) and the GI50 (UO-31) was 3.3 µM (inactive).
